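GI50 = concentration required for 50% inhibition of growth. TGI denotes the concentration required for complete inhibition of growth.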
Experiments:
Assay in all cases: NCI tumour cell line growth inhibition, 384-well format
786-0 renal = tested on: 786-0 renal
A498 renal = tested on: A498 renal
A549 NSCLC = tested on: A549 NSCLC
ACHN renal = tested on: ACHN renal
BT-549 breast = tested on: BT-549 breast
CAKI-1 renal = tested on: CAKI-1 renal
CCRF-CEM leukemia = tested on: CCRF-CEM leukemia
COLO 205 colon = tested on: COLO 205 colon
DU-145 prostate = tested on: DU-145 prostate
EKVX NSCLC = tested on: EKVX NSCLC
HCC-2998 colon = tested on: HCC-2998 colon
HCT-116 colon = tested on: HCT-116 colon
HCT-15 colon = tested on: HCT-15 colon
HL-60(TB) leukemia = tested on: HL-60(TB) leukemia
HOP-62 NSCLC = tested on: HOP-62 NSCLC
HOP-92 NSCLC = tested on: HOP-92 NSCLC
HS 578T breast = tested on: HS 578T breast
HT29 colon = tested on: HT29 colon
K-562 leukemia = tested on: K-562 leukemia
KM12 colon = tested on: KM12 colon
LOX IMVI melanoma = tested on: LOX IMVI melanoma
M14 melanoma = tested on: M14 melanoma
MALME-3M melanoma = tested on: MALME-3M melanoma
MCF7 breast = tested on: MCF7 breast
MDA-MB-231 breast = tested on: MDA-MB-231 breast
MDA-MB-435 melanoma = tested on: MDA-MB-435 melanoma
MDA-MB-468 breast = tested on: MDA-MB-468 breast
MOLT-4 leukemia = tested on: MOLT-4 leukemia
NCI-H226 lung = tested on: NCI-H226 lung
NCI-H23 lung = tested on: NCI-H23 lung
NCI-H322M lung = tested on: NCI-H322M lung
NCI-H460 NSCLC = tested on: NCI-H460 NSCLC
NCI-H522 lung = tested on: NCI-H522 lung
NCI/ADR-RES ovarian = tested on: NCI/ADR-RES ovarian
OVCAR-3 ovarian = tested on: OVCAR-3 ovarian
OVCAR-4 ovarian = tested on: OVCAR-4 ovarian
OVCAR-8 ovarian = tested on: OVCAR-8 ovarian
RPMI-8226 leukemia = tested on: RPMI-8226 leukemia
RXF 393 renal = tested on: RXF 393 renal
SF-268 CNS = tested on: SF-268 CNS
SF-295 CNS = tested on: SF-295 CNS
SF-539 CNS = tested on: SF-539 CNS
SK-MEL-28 melanoma = tested on: SK-MEL-28 melanoma
SK-MEL-5 melanoma = tested on: SK-MEL-5 melanoma
SK-OV-3 ovarian = tested on: SK-OV-3 ovarian
SN12C renal = tested on: SN12C renal
SNB-19 CNS = tested on: SNB-19 CNS
SNB-75 CNS = tested on: SNB-75 CNS
SR leukemia = tested on: SR leukemia
SW-620 colon = tested on: SW-620 colon
T-47D breast = tested on: T-47D breast
TK-10 renal = tested on: TK-10 renal
U251 glioblastoma = tested on: U251 glioblastoma
UACC-257 melanoma = tested on: UACC-257 melanoma
UACC-62 melanoma = tested on: UACC-62 melanoma
UO-31 renal = tested on: UO-31 renal
IGROV1 ovarian = tested on: IGROV1 ovarian
OVCAR-5 ovarian = tested on: OVCAR-5 ovarian
PC-3 prostate = tested on: PC-3 prostate
SK-MEL-2 melanoma = tested on: SK-MEL-2 melanoma

## CCc1cc(C(N)=O)ccc1-n1nc(C(C)C)c2c(-n3cnc(-c4cnn(C)c4)c3)ccnc21
786-0 renal
  GI50: 825 nM
  TGI: > 100000 nM
A498 renal
  GI50: 1110 nM
  TGI: > 100000 nM
A549 NSCLC
  GI50: 411 nM
  TGI: > 100000 nM
ACHN renal
  GI50: 902 nM
  TGI: > 100000 nM
BT-549 breast
  GI50: 651 nM
  TGI: 9960 nM
CAKI-1 renal
  GI50: 767 nM
  TGI: > 100000 nM
CCRF-CEM leukemia
  GI50: 289 nM
  TGI: 1250 nM
COLO 205 colon
  GI50: 392 nM
  TGI: > 100000 nM
DU-145 prostate
  GI50: 369 nM
  TGI: 5800 nM
EKVX NSCLC
  GI50: 712 nM
  TGI: > 100000 nM
HCC-2998 colon
  GI50: 406 nM
  TGI: 1870 nM
HCT-116 colon
  GI50: 561 nM
  TGI: 82900 nM
HCT-15 colon
  GI50: 534 nM
  TGI: > 100000 nM
HL-60(TB) leukemia
  GI50: 189 nM
  TGI: 405 nM
HOP-62 NSCLC
  GI50: 584 nM
  TGI: > 100000 nM
HOP-92 NSCLC
  GI50: 675 nM
  TGI: 3060 nM
HS 578T breast
  GI50: 418 nM
  TGI: 2230 nM
HT29 colon
  GI50: 398 nM
  TGI: > 100000 nM
K-562 leukemia
  GI50: 326 nM
  TGI: 3660 nM
KM12 colon
  GI50: 374 nM
  TGI: > 100000 nM
LOX IMVI melanoma
  GI50: 382 nM
  TGI: 1260 nM
M14 melanoma
  GI50: 488 nM
  TGI: 23000 nM
MALME-3M melanoma
  GI50: 240 nM
  TGI: 502 nM
MCF7 breast
  GI50: 305 nM
  TGI: > 100000 nM
MDA-MB-231 breast
  GI50: 643 nM
  TGI: 6070 nM
MDA-MB-435 melanoma
  GI50: 653 nM
  TGI: > 100000 nM
MDA-MB-468 breast
  GI50: 276 nM
  TGI: 595 nM
MOLT-4 leukemia
  GI50: 182 nM
  TGI: 349 nM
NCI-H226 lung
  GI50: 3040 nM
  TGI: > 100000 nM
NCI-H23 lung
  GI50: 301 nM
  TGI: 873 nM
NCI-H322M lung
  GI50: 799 nM
  TGI: > 100000 nM
NCI-H460 NSCLC
  GI50: 285 nM
  TGI: 645 nM
NCI-H522 lung
  GI50: 210 nM
  TGI: 458 nM
NCI/ADR-RES ovarian
  GI50: 16900 nM
  TGI: 75400 nM
OVCAR-3 ovarian
  GI50: 454 nM
  TGI: 2230 nM
OVCAR-4 ovarian
  GI50: 6010 nM
  TGI: > 100000 nM
OVCAR-8 ovarian
  GI50: 396 nM
  TGI: 1620 nM
RPMI-8226 leukemia
  GI50: 376 nM
  TGI: 1090 nM
RXF 393 renal
  GI50: 236 nM
  TGI: 614 nM
SF-268 CNS
  GI50: 510 nM
  TGI: > 100000 nM
SF-295 CNS
  GI50: 426 nM
  TGI: 1660 nM
SF-539 CNS
  GI50: 304 nM
  TGI: 768 nM
SK-MEL-28 melanoma
  GI50: 387 nM
  TGI: 20000 nM
SK-MEL-5 melanoma
  GI50: 532 nM
  TGI: 39100 nM
SK-OV-3 ovarian
  GI50: 738 nM
  TGI: > 100000 nM
SN12C renal
  GI50: 412 nM
  TGI: 2440 nM
SNB-19 CNS
  GI50: 778 nM
  TGI: > 100000 nM
SNB-75 CNS
  GI50: 402 nM
  TGI: 2020 nM
SR leukemia
  GI50: 169 nM
  TGI: 329 nM
SW-620 colon
  GI50: 407 nM
  TGI: 15500 nM
T-47D breast
  GI50: 1590 nM
  TGI: 10100 nM
TK-10 renal
  GI50: 487 nM
  TGI: > 100000 nM
U251 glioblastoma
  GI50: 485 nM
  TGI: 3080 nM
UACC-257 melanoma
  GI50: 5930 nM
  TGI: > 100000 nM
UACC-62 melanoma
  GI50: 702 nM
  TGI: 3240 nM
UO-31 renal
  GI50: 1130 nM
  TGI: > 100000 nM

## COc1ccc(C(=O)CC2(O)C(=O)Nc3c(Cl)ccc(Cl)c32)cc1 (stereo not drawn)
786-0 renal
  GI50: 3610 nM
  TGI: 21700 nM
A498 renal
  GI50: 3720 nM
  TGI: 46700 nM
A549 NSCLC
  GI50: 2100 nM
  TGI: > 100000 nM
ACHN renal
  GI50: 7900 nM
  TGI: > 100000 nM
BT-549 breast
  GI50: 509 nM
  TGI: 10900 nM
CAKI-1 renal
  GI50: 679 nM
  TGI: > 100000 nM
CCRF-CEM leukemia
  GI50: 656 nM
  TGI: 1900 nM
COLO 205 colon
  GI50: 646 nM
  TGI: > 100000 nM
DU-145 prostate
  GI50: 2790 nM
  TGI: 12100 nM
EKVX NSCLC
  GI50: 3810 nM
  TGI: 52000 nM
HCC-2998 colon
  GI50: 1800 nM
  TGI: 36200 nM
HCT-116 colon
  GI50: 568 nM
  TGI: 32100 nM
HCT-15 colon
  GI50: 369 nM
  TGI: 14400 nM
HL-60(TB) leukemia
  GI50: 237 nM
  TGI: 474 nM
HOP-62 NSCLC
  GI50: 1260 nM
  TGI: 47800 nM
HOP-92 NSCLC
  GI50: 9020 nM
  TGI: 54500 nM
HS 578T breast
  GI50: 1090 nM
  TGI: 2760 nM
IGROV1 ovarian
  GI50: 2780 nM
  TGI: > 100000 nM
K-562 leukemia
  GI50: 354 nM
  TGI: 1650 nM
KM12 colon
  GI50: 467 nM
  TGI: 25600 nM
LOX IMVI melanoma
  GI50: 4440 nM
  TGI: 21000 nM
M14 melanoma
  GI50: 529 nM
  TGI: 2570 nM
MALME-3M melanoma
  GI50: 13900 nM
  TGI: 45400 nM
MCF7 breast
  GI50: 1070 nM
  TGI: 21000 nM
MDA-MB-231 breast
  GI50: 13200 nM
  TGI: > 100000 nM
MDA-MB-435 melanoma
  GI50: 207 nM
  TGI: 431 nM
MDA-MB-468 breast
  GI50: 215 nM
  TGI: 571 nM
MOLT-4 leukemia
  GI50: 216 nM
  TGI: 426 nM
NCI-H226 lung
  GI50: 6250 nM
  TGI: 50000 nM
NCI-H23 lung
  GI50: 1970 nM
  TGI: 12100 nM
NCI-H322M lung
  GI50: 5820 nM
  TGI: > 100000 nM
NCI-H460 NSCLC
  GI50: 477 nM
  TGI: 2480 nM
NCI-H522 lung
  GI50: 264 nM
  TGI: 587 nM
NCI/ADR-RES ovarian
  GI50: 346 nM
  TGI: 1360 nM
OVCAR-3 ovarian
  GI50: 382 nM
  TGI: 1250 nM
OVCAR-4 ovarian
  GI50: 8800 nM
  TGI: 85600 nM
OVCAR-5 ovarian
  GI50: 9830 nM
  TGI: > 100000 nM
PC-3 prostate
  GI50: 2270 nM
  TGI: > 100000 nM
RPMI-8226 leukemia
  GI50: 1170 nM
  TGI: 2560 nM
RXF 393 renal
  GI50: 960 nM
  TGI: 5080 nM
SF-268 CNS
  GI50: 10600 nM
  TGI: 31300 nM
SF-295 CNS
  GI50: 1550 nM
  TGI: 8410 nM
SF-539 CNS
  GI50: 1680 nM
  TGI: 5350 nM
SK-MEL-2 melanoma
  GI50: 864 nM
  TGI: 3020 nM
SK-MEL-28 melanoma
  GI50: 15900 nM
  TGI: > 100000 nM
SK-MEL-5 melanoma
  GI50: 663 nM
  TGI: 5850 nM
SK-OV-3 ovarian
  GI50: 2560 nM
  TGI: 95600 nM
SN12C renal
  GI50: 3280 nM
  TGI: 20800 nM
SNB-19 CNS
  GI50: 2320 nM
  TGI: 32800 nM
SNB-75 CNS
  GI50: 2260 nM
  TGI: 15800 nM
SR leukemia
  GI50: 113 nM
  TGI: 256 nM
SW-620 colon
  GI50: 452 nM
  TGI: > 100000 nM
T-47D breast
  GI50: 9170 nM
  TGI: 52000 nM
TK-10 renal
  GI50: 1360 nM
  TGI: > 100000 nM
U251 glioblastoma
  GI50: 1130 nM
  TGI: 12500 nM
UACC-257 melanoma
  GI50: 6690 nM
  TGI: 21600 nM
UACC-62 melanoma
  GI50: 380 nM
  TGI: 4270 nM
UO-31 renal
  GI50: 8450 nM
  TGI: > 100000 nM

Reference: PubChem BioAssay (NCI)
